Results on 56 compounds are retold here after ChEMBL document CHEMBL3046949, “New molecular scaffolds for the design of Alzheimers acetylcholinesterase inhibitors identified using ligand- and receptor-based virtual screening” (Med Chem Res, 2013).

SMILES strings stand for the structures.

The first experiment deals with T1, Acetylcholinesterase (Rattus norvegicus, UniProt P37136).
T1 sequence (P37136 whole entry): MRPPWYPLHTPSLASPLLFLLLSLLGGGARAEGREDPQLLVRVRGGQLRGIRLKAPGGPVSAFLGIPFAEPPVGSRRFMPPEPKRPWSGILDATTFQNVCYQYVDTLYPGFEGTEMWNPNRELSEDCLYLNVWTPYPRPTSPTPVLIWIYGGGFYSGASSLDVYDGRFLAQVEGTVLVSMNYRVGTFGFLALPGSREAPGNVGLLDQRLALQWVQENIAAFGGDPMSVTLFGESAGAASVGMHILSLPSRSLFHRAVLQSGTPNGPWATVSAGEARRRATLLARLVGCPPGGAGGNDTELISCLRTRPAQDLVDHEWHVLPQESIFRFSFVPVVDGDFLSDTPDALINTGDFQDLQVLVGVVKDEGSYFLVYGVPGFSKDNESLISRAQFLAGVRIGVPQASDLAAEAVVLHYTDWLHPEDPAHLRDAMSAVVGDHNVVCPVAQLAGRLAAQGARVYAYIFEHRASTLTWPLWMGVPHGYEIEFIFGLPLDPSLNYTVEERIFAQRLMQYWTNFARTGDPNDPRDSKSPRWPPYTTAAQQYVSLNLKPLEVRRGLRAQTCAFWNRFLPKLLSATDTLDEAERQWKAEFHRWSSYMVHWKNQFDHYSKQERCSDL
Description: Inhibition of acetylcholinesterase in Rattus norvegicus (rat) cortex by Ellman method
The IC50 is the concentration needed to halve the response being measured. Read a high IC50 as weaker potency. Compound `CCN(C)Cc1ccc(/C=C2\Cc3cc(OC)c(OC)cc3C2=O)cc1` gave an IC50 of 263 nM. In other words, the sub-micromolar range.

Consider `COc1cc2c(cc1OC)C(=O)/C(=C/c1cccc(CN3CCCC3)c1)C2`, for which the half-maximal inhibitory concentration (IC50) was 234 nM. This IC50 and that of the compound before are within 1.5-fold of each other.

With `COc1cc2c(cc1OC)C(=O)C(Cc1ccc(CN3CCCC3)cc1)C2` (stereo not drawn), the half-maximal inhibitory concentration (IC50) is 155 nM.

Compound `COc1cc2c(cc1OC)C(=O)/C(=C/c1cccc(CN3CCCCC3)c1)C2` had an IC50 of 162 nM.

Compound `COc1cc2c(cc1OC)C(=O)/C(=C/c1ccc(CN3CCCCC3)cc1)C2` had a 50% inhibitory concentration (IC50) of 102 nM.

In turn, `COc1cc2c(cc1OC)C(=O)C(Cc1ccc(CN3CCCCC3)cc1)C2` (stereo not drawn) had a half-inhibitory concentration (IC50) of 123 nM.

Consider `CCN(CC)Cc1cccc(/C=C2\Cc3cc(OC)c(OC)cc3C2=O)c1`, for which it took 447 nM to reach half-maximal inhibition (IC50).

In a further experiment the target is Acetylcholinesterase (Homo sapiens, UniProt P22303).
Acetylcholinesterase (Homo sapiens, UniProt P22303), sequence (P22303 whole entry): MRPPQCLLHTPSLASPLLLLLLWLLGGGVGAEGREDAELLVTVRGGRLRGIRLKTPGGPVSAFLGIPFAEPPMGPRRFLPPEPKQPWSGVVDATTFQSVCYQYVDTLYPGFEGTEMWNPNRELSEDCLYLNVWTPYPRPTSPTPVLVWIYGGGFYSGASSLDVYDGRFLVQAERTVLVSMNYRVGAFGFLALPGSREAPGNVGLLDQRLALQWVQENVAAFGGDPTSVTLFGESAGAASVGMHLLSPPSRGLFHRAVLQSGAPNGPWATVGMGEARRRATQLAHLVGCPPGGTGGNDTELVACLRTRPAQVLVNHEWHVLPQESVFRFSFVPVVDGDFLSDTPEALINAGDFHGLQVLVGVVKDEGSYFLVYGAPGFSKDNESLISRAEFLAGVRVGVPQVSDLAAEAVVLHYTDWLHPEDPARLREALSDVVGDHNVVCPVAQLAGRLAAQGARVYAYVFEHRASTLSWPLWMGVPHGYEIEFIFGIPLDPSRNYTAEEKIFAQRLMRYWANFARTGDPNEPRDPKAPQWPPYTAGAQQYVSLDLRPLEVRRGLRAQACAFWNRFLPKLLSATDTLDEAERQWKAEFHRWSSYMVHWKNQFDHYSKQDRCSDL
Description: Binding affinity to acetylcholinesterase (unknown origin)
The term Ki denotes a dissociation constant, usually derived from enzyme kinetics or from competition with a known ligand. A low value points to tighter binding. `COc1ccc(C(=O)NC2CCN(Cc3c(F)cccc3Cl)CC2)cc1OC` registered a Ki of 54.8 nM.

`O=C(NC1CCN(Cc2ccccc2)CC1)c1ccc2c(c1)OCCCO2` gave an inhibition constant (Ki) of 95.3 nM.

Compound `COc1cc2c(cc1OC)C(=O)C(Oc1ccc(C(C)N(C)C)cc1)C2` (stereo not drawn) showed an inhibition constant Ki of 543 nM.

As to `COc1cc2c(cc1OC)C(=O)C(Oc1ccc(CN3CCOCC3)cc1)C2` (stereo not drawn), the Ki was found to be 514 nM.

Consider `COc1cc2c(cc1OC)C(=O)C(Oc1ccc(CN3CCCCC3)cc1)C2` (stereo not drawn), for which the Ki is 403 nM. The Ki values of the last two compounds are within 1.5-fold of each other.

Compound `COc1cc2c(cc1OC)C(=O)C(Oc1ccc(C(C)N3CCCCC3)cc1)C2` (stereo not drawn) yielded a Ki of 106 nM.

Take `CCN(CC)Cc1ccc(OC2Cc3cc(OC)c(OC)cc3C2=O)cc1` (stereo not drawn): the inhibition constant Ki came out at 1340 nM.

The compound `COc1cc2c(cc1OC)C(=O)C(Oc1ccc(C(C)N3CCCC3)cc1)C2` (stereo not drawn) had an inhibitory constant (Ki) of 403 nM.

`COc1cc2c(cc1OC)C(=O)C(Oc1ccc(CN3CCCC3)cc1)C2` (stereo not drawn) gave a Ki of 257 nM.

Take `CCN(CC)C(C)c1cccc(OC2Cc3cc(OC)c(OC)cc3C2=O)c1` (stereo not drawn): the Ki is 865 nM.

Compound `CCN(CC)Cc1cccc(OC2Cc3cc(OC)c(OC)cc3C2=O)c1` (stereo not drawn) returned a Ki of 1590 nM.

The compound `CCN(CC)C(C)c1ccc(OC2Cc3cc(OC)c(OC)cc3C2=O)cc1` (stereo not drawn) gave an inhibition constant (Ki) of 1330 nM.

`COc1cc2c(cc1OC)C(=O)C(Oc1cccc(C(C)N3CCN(C)CC3)c1)C2` (stereo not drawn) had a Ki of 77.7 nM.

Take `COc1cc2c(cc1OC)C(=O)C(Oc1cccc(CN3CCCCC3)c1)C2` (stereo not drawn): the Ki was determined as 266 nM.

Take `COc1cc2c(cc1OC)C(=O)C(Oc1cccc(CN(C)C)c1)C2` (stereo not drawn): the inhibitory constant (Ki) was 1000 nM.

The compound `COc1cc2c(cc1OC)C(=O)C(Oc1cccc(CN3CCOCC3)c1)C2` (stereo not drawn) registered an inhibition constant (Ki) of 793 nM. This Ki and that of the compound before are within 1.5-fold of each other.

`COc1cc2c(cc1OC)C(=O)C(Oc1cccc(C(C)N3CCCC3)c1)C2` (stereo not drawn) came in with an inhibition constant (Ki) of 138 nM.

On to `COc1cc2c(cc1OC)C(=O)C(Oc1cccc(C(C)N3CCOCC3)c1)C2` (stereo not drawn), for which the inhibition constant Ki came out at 118 nM. This Ki and that of the compound before are within 1.5-fold of each other.

In the case of `O=C(CC1S/C(=N/c2ccc(C3CCCCC3)cc2)NC1=O)Nc1ccc(OC(F)(F)F)cc1` (stereo not drawn), the Ki is 897 nM.

Take `CC(C)(C)c1ccc(/C(N)=N/OC(=O)c2cnn(-c3ccc([N+](=O)[O-])cc3)c2C(F)(F)F)cc1`: the Ki was 521 nM.

Consider `N/C(=N\OC(=O)c1cnn(-c2ccc([N+](=O)[O-])cc2)c1C(F)(F)F)c1ccc(Cl)cc1`, for which the affinity corresponds to a Ki of 2350 nM. This Ki lies about 4.5-fold higher than the previous one.

`O=C(Nc1ccc(OC(F)(F)F)cc1)N1CCCN(CCc2ccccc2)CC1` had an inhibition constant Ki of 241 nM.

For `Cc1c(S(=O)(=O)c2ccc(Cl)cc2)csc1C(=O)NC1CCN(Cc2ccccc2)CC1`, affinity was put at a Ki of 21.3 nM. Compared with the last compound, the Ki is about 11-fold lower.

`O=C(CN1CCN(Cc2ccccc2)CC1)Nc1ccc(C(F)(F)F)cc1Cl` came in with an inhibitory constant (Ki) of 47.3 nM.

The compound `O=C(Nc1ccc(OC(F)(F)F)cc1)OC1CN(C(c2ccccc2)c2ccccc2)C1` returned an inhibitory constant (Ki) of 22.8 nM.

For the compound `CSc1cccc(/N=C2\NC(=O)C(CC(=O)Nc3ccc(F)c(F)c3)S2)c1` (stereo not drawn), the Ki was determined as 130 nM.

`O=c1c(Cl)c(N2CCN(c3ccc(C(F)(F)F)cn3)CC2)cnn1-c1c(Cl)cc(C(F)(F)F)cc1Cl` returned a Ki of 2870 nM.

`O=[N+]([O-])c1ccc(OCC(O)CN2CCCN(c3nc4ccc(Cl)cc4s3)CC2)cc1` (stereo not drawn) displayed a Ki of 263 nM. This Ki is about 11-fold lower than that of the compound before.

The compound `CC(CN1CCN(Cc2ccccc2)CC1)N(C(=O)c1cccc([N+](=O)[O-])c1)c1ccccn1` (stereo not drawn) yielded an inhibition constant Ki of 61.4 nM.

In the case of `N/C(=N\OC(=O)c1cnn(-c2ccc([N+](=O)[O-])cc2)c1C(F)(F)F)c1ccc(C(F)(F)F)cc1`, the Ki came out at 2070 nM.

As for `COc1cc2c(cc1OC)C(=O)C(Oc1cccc(CN3CCN(C)CC3)c1)C2` (stereo not drawn), the affinity corresponds to a Ki of 62.1 nM.

`COc1cc2c(cc1OC)C(=O)C(Oc1ccc(CN3CCN(C)CC3)cc1)C2` (stereo not drawn) registered an inhibition constant Ki of 69.5 nM.

With `COc1cc2c(cc1OC)C(=O)C(Oc1ccc(C(C)N3CCOCC3)cc1)C2` (stereo not drawn), the inhibition constant Ki came out at 217 nM.

With `COc1cc2c(cc1OC)C(=O)C(Oc1ccc(C(C)N3CCN(C)CC3)cc1)C2` (stereo not drawn), the Ki amounted to 228 nM. This Ki and that of the compound before are within 1.5-fold of each other.

`COc1cc2c(cc1OC)C(=O)C(Oc1cccc(C(C)N3CCCCC3)c1)C2` (stereo not drawn) registered a Ki of 38.2 nM.

Regarding `COc1cc2c(cc1OC)C(=O)C(Oc1ccc(CN(C)C)cc1)C2` (stereo not drawn), the Ki is 209 nM.

As to `COc1cc2c(cc1OC)C(=O)/C(=C/c1cccc(CN(C)C)c1)C2`, the affinity corresponds to a Ki of 62.2 nM.

On to `COc1cc2c(cc1OC)C(=O)/C(=C/c1ccc(CN(C)C)cc1)C2`, for which the affinity corresponds to a Ki of 617 nM.

`CCN(C)Cc1cccc(/C=C2\Cc3cc(OC)c(OC)cc3C2=O)c1`: the Ki was 235 nM.

On to `CCN(C)Cc1ccc(/C=C2\Cc3cc(OC)c(OC)cc3C2=O)cc1`, for which the inhibition constant Ki came out at 920 nM.

Consider `CCN(CC)Cc1ccc(/C=C2\Cc3cc(OC)c(OC)cc3C2=O)cc1`, for which affinity was put at a Ki of 453 nM.

`COc1cc2c(cc1OC)C(=O)/C(=C/c1cccc(CN3CCCC3)c1)C2` registered a Ki of 127 nM. Compared with the last compound, the Ki is about 3.6-fold lower.

`COc1cc2c(cc1OC)C(=O)/C(=C/c1ccc(CN3CCCC3)cc1)C2` showed an inhibition constant Ki of 198 nM.

`COc1cc2c(cc1OC)C(=O)C(Cc1cccc(CN3CCCCC3)c1)C2` (stereo not drawn) returned a Ki of 59.3 nM.

The compound `CCN(CC)Cc1cccc(CC2Cc3cc(OC)c(OC)cc3C2=O)c1` (stereo not drawn) showed a Ki of 21.7 nM.

The compound `CCN(CC)Cc1ccc(CC2Cc3cc(OC)c(OC)cc3C2=O)cc1` (stereo not drawn) showed a Ki of 1040 nM.

The compound `COc1cc2c(cc1OC)C(=O)C(Cc1cccc(CN3CCCC3)c1)C2` (stereo not drawn) registered a Ki of 22.3 nM. Against the preceding compound, the Ki is about 47-fold lower.

In the case of `COc1cc2c(cc1OC)C(=O)C(Cc1ccc(CN3CCCC3)cc1)C2` (stereo not drawn), the affinity corresponds to a Ki of 773 nM.

`CCN(C)Cc1ccc(CC2Cc3cc(OC)c(OC)cc3C2=O)cc1` (stereo not drawn) showed an inhibition constant (Ki) of 918 nM.

Regarding `COc1cc2c(cc1OC)C(=O)C(Cc1cccc(CN(C)C)c1)C2` (stereo not drawn), the inhibitory constant (Ki) turned out to be 525 nM.

As to `COc1cc2c(cc1OC)C(=O)/C(=C/c1cccc(CN3CCCCC3)c1)C2`, the affinity, expressed as Ki, was 70.9 nM. Against the preceding compound, the Ki is about 7.4-fold lower.

`COc1cc2c(cc1OC)C(=O)/C(=C/c1ccc(CN3CCCCC3)cc1)C2` displayed an inhibition constant (Ki) of 95.2 nM.

As for `COc1cc2c(cc1OC)C(=O)C(Cc1ccc(CN3CCCCC3)cc1)C2` (stereo not drawn), the inhibitory constant (Ki) is 73.8 nM.

Compound `CCN(C)Cc1cccc(CC2Cc3cc(OC)c(OC)cc3C2=O)c1` (stereo not drawn) yielded a Ki of 507 nM.

Compound `CCN(CC)Cc1cccc(/C=C2\Cc3cc(OC)c(OC)cc3C2=O)c1` yielded an inhibition constant Ki of 237 nM.

In turn, `COc1cc2c(cc1OC)C(=O)C(Oc1cccc(C(C)N(C)C)c1)C2` (stereo not drawn) gave a Ki of 400 nM.
